Measured values published in patent US9693942B2 (NESTEC S.A., priority 2012, dated 2017).

Tests used:
[1] = tested on: B16 murine melanocytes; test: Production of melanin by B16 murine melanocyte cell line; format: cell-based; details: kojic acid 400 μg/mL, 72 hours, B16 cells, total melanin (extracellular and intracellular), OD 405 nm
Protocol: B16 cells were cultured in DMEM 1 g/L glucose without phenol red supplemented with 10% foetal calf serum, in a humidified chamber at 37° C. and containing 5% CO2. […] This was performed in the presence or absence of NDP-MSH, an analog of MSH (melanocyte-stimulating hormone). The total quantity of melanin (extracellular and intracellular) was evaluated by measuring the optical density at 405 nm of each sample against melanin standards in the presence or absence of NDP-MSH. The control condition corresponds to a culture of B16 murine melanocytes treated just with the medium, no other compound being added.

[2] = tested on: tyrosinase; test: Production of tyrosinase by B16 murine melanocyte cell line (immunolabeling); format: cell-based; details: kojic acid 400 μg/mL, 48 hours, B16 cells
Protocol: B16 cells were cultured in DMEM 1 g/L glucose without phenol red supplemented with 10% foetal calf serum, in a humidified chamber at 37° C. and containing 5% CO2. […] The production of tyrosinase was evaluated by immunolabeling. The control condition corresponds to a culture of B16 murine melanocytes treated just with the medium, no other compound being added.

O=c1cc(CO)occ1O [kojic acid]
melanin production, percentage relative to the control [1]: 48% | production of tyrosinase relative to the control [2]: decreased
